In ChEMBL document CHEMBL1130942, “A combinatorial approach to chemical modification of subtilisin Bacillus lentus” (Bioorg Med Chem Lett, 1998):

Tests used:
Format in all cases: ADME
[1] = Compound was tested for esterase rate in the presence of S166C fully characterised enzyme
[2] = Compound was tested for amidase rate in the presence of S166C screen enzyme
[3] = Compound was tested for esterase rate in the presence of N62C fully characterised enzyme
[4] = Compound was tested for esterase rate in the presence of N62C screen enzyme
[5] = Compound was tested for esterase rate in the presence of S166C screen enzyme
[6] = Compound was tested for amidase rate in the presence of N62C screen enzyme
[7] = Compound was tested for amidase rate in the presence of S166C fully characterised enzyme
[8] = Compound was tested for amidase rate in the presence of N62C fully characterised enzyme

k cat/Km [1] [M⁻¹ s⁻¹]	k cat/Km [2] [M⁻¹ s⁻¹]	k cat/Km [3] [M⁻¹ s⁻¹]	k cat/Km [4] [M⁻¹ s⁻¹]	k cat/Km [5] [M⁻¹ s⁻¹]	k cat/Km [6] [M⁻¹ s⁻¹]	k cat/Km [7] [M⁻¹ s⁻¹]	k cat/Km [8] [M⁻¹ s⁻¹]	SMILES
4.92e+06	10000	6.33e+06	6.51e+06	1.16e+06	207000	20000	379000	CS(=O)(=O)SCc1ccccc1
1.146e+07	16000	5.07e+07	7.68e+06	2.37e+06	74000	72000	442000	CS(=O)(=O)SCc1ccc(C(=O)O)cc1
5.798e+06	17000	7.87e+06	5.68e+06	1.746e+06	86000	68000	93000	COc1ccc(CSS(C)(=O)=O)cc1

SMILES	k cat/Km [1] [M⁻¹ s⁻¹]	k cat/Km [2] [M⁻¹ s⁻¹]	k cat/Km [3] [M⁻¹ s⁻¹]	k cat/Km [4] [M⁻¹ s⁻¹]	k cat/Km [5] [M⁻¹ s⁻¹]	k cat/Km [6] [M⁻¹ s⁻¹]	k cat/Km [7] [M⁻¹ s⁻¹]	k cat/Km [8] [M⁻¹ s⁻¹]
CS(=O)(=O)SCc1c(F)c(F)c(F)c(F)c1F [METHANETHIOSULFONIC ACID PENTAFLUOROPHENYLMETHYL ESTER]	5.198e+06	14000	1.426e+07	7.52e+06	784000	111000	67000	198000
